Assay results: PubChem BioAssay AID248 (DTP/NCI, 2004)
“And” between values parts separate entries of the source, which are not always exact repeats. Equal entries are not always repeated. Toxic doses and inconclusive results are not listed. No stated cut-off is given here; in the data, active means T/C of 150% or more; inactive means T/C below 125%.

Tested on: L1210 leukemia ip in BDF1 mice, survival T/C
Assay: NCI In Vivo Anticancer Drug Screen. Data for tumor model L1210 Leukemia (intraperitoneal) in B6D2F1 (BDF1) mice
Settings: endpoint: mean survival time, higher = longer survival
Procedure, shortened: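 Ratio derived from survival: compound-dosed mice over vehicle-dosed mice, all bearing a transplantable tumor.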

[1] = dose: 50.0 mg/kg/injection, schedule: Q01DX009 (ip), vehicle: Klucel (hydroxypropylcellulose) (HPC)
[2] = dose: 100.0 mg/kg/injection, schedule: Q01DX009 (ip), vehicle: Klucel (hydroxypropylcellulose) (HPC)
[3] = dose: 200.0 mg/kg/injection, schedule: Q01DX009 (ip), vehicle: Klucel (hydroxypropylcellulose) (HPC)
[4] = dose: 100.0 mg/kg/injection, schedule: Q04DX003 (ip), vehicle: saline
[5] = dose: 200.0 mg/kg/injection, schedule: Q04DX003 (ip), vehicle: saline
[6] = dose: 12.5 mg/kg/injection, schedule: Q01DX009 (ip), vehicle: saline
[7] = dose: 25.0 mg/kg/injection, schedule: Q01DX009 (ip), vehicle: saline
[8] = dose: 50.0 mg/kg/injection, schedule: Q04DX003 (ip), vehicle: saline with Tween-80
[9] = dose: 100.0 mg/kg/injection, schedule: Q01DX009 (ip), vehicle: saline
[10] = dose: 25.0 mg/kg/injection, schedule: Q01DX009 (ip), vehicle: Klucel (hydroxypropylcellulose) (HPC)
[11] = dose: 25.0 mg/kg/injection, schedule: Q04DX003 (ip), vehicle: Klucel (hydroxypropylcellulose) (HPC)
[12] = dose: 50.0 mg/kg/injection, schedule: Q04DX003 (ip), vehicle: Klucel (hydroxypropylcellulose) (HPC)
[13] = dose: 100.0 mg/kg/injection, schedule: Q04DX003 (ip), vehicle: Klucel (hydroxypropylcellulose) (HPC)
[14] = dose: 200.0 mg/kg/injection, schedule: Q04DX003 (ip), vehicle: Klucel (hydroxypropylcellulose) (HPC)
[15] = dose: 400.0 mg/kg/injection, schedule: Q04DX003 (ip), vehicle: Klucel (hydroxypropylcellulose) (HPC)
[16] = dose: 100.0 mg/kg/injection, schedule: Q04DX002 (ip), vehicle: saline
[17] = dose: 100.0 mg/kg/injection, schedule: Q01DX001 (ip), vehicle: saline
[18] = dose: 200.0 mg/kg/injection, schedule: Q01DX001 (ip), vehicle: saline
[19] = dose: 400.0 mg/kg/injection, schedule: Q01DX001 (ip), vehicle: saline
[20] = dose: 25.0 mg/kg/injection, schedule: Q01DX009 (ip), vehicle: water
[21] = dose: 50.0 mg/kg/injection, schedule: Q01DX009 (ip), vehicle: water
[22] = dose: 100.0 mg/kg/injection, schedule: Q01DX009 (ip), vehicle: water
[23] = dose: 200.0 mg/kg/injection, schedule: Q01DX009 (ip), vehicle: water
[24] = dose: 400.0 mg/kg/injection, schedule: Q01DX009 (ip), vehicle: water
[25] = dose: 50.0 mg/kg/injection, schedule: Q01DX009 (ip), vehicle: saline
[26] = dose: 100.0 mg/kg/injection, schedule: Q01DX001 (ip), vehicle: Klucel (hydroxypropylcellulose) (HPC)
[27] = dose: 200.0 mg/kg/injection, schedule: Q01DX001 (ip), vehicle: Klucel (hydroxypropylcellulose) (HPC)
[28] = dose: 100.0 mg/kg/injection, schedule: Q04DX003 (ip), vehicle: saline with Tween-80
[29] = dose: 200.0 mg/kg/injection, schedule: Q04DX003 (ip), vehicle: saline with Tween-80

Measured: T/C

CC1(C)CC(C)(c2ccccc2)c2ccccc21 (stereo not given)
inactive: [1] 101 % of control | dose: 75.0 mg/kg/injection, schedule: Q04DX003 (ip), vehicle: Klucel (hydroxypropylcellulose) (HPC) 104 % of control | [2] 95 % of control | dose: 150.0 mg/kg/injection, schedule: Q04DX003 (ip), vehicle: Klucel (hydroxypropylcellulose) (HPC) 102 % of control | [3] 95 % of control | dose: 300.0 mg/kg/injection, schedule: Q04DX003 (ip), vehicle: Klucel (hydroxypropylcellulose) (HPC) 102 % of control

C1CNCOC1
inactive: [4] 105 % of control | [5] 111 % of control

Clc1nc(Sc2ccc(Br)cc2)c(Cl)c(Sc2ccc(Br)cc2)n1
inactive: dose: 62.5 mg/kg/injection, schedule: Q01DX001 (ip), vehicle: Klucel (hydroxypropylcellulose) (HPC) 95 % of control and 89 % of control | dose: 125.0 mg/kg/injection, schedule: Q01DX001 (ip), vehicle: Klucel (hydroxypropylcellulose) (HPC) 94 % of control | dose: 250.0 mg/kg/injection, schedule: Q01DX001 (ip), vehicle: Klucel (hydroxypropylcellulose) (HPC) 94 % of control and 98 % of control

CN(C)C(c1ccccc1)C(CBr)C(=O)c1ccc(Br)cc1 (stereo not given)
inactive: [6] 93 % of control | dose: 12.5 mg/kg/injection, schedule: Q04DX003 (ip), vehicle: saline with Tween-80 96 % of control | [7] 91 % of control | dose: 25.0 mg/kg/injection, schedule: Q04DX003 (ip), vehicle: saline with Tween-80 102 % of control | [8] 96 % of control

CCOC(=O)/C=C(/OC(=O)c1ccccc1)c1ccccc1
inactive: dose: 100.0 mg/kg/injection, schedule: Q01DX001 (ip), vehicle: acetone 95 % of control | [9] 107 % of control | dose: 200.0 mg/kg/injection, schedule: Q01DX001 (ip), vehicle: acetone 97 % of control | dose: 200.0 mg/kg/injection, schedule: Q01DX009 (ip), vehicle: saline 107 % of control | dose: 400.0 mg/kg/injection, schedule: Q01DX001 (ip), vehicle: acetone 103 % of control | dose: 400.0 mg/kg/injection, schedule: Q01DX009 (ip), vehicle: saline 94 % of control

NN(CC1=COc2ccccc2O1)Cc1ccccc1
inactive: [10] 100 % of control | [11] 92 % of control | [1] 94 % of control | [12] 92 % of control | [2] 96 % of control | [13] 92 % of control | [3] 95 % of control | [14] 95 % of control | [15] 97 % of control

C[CH2][Ge]1([CH2]C)[CH2]CC2(C[CH2]1)CN(CCCN(C)C)CN2
inactive: [16] 103 % of control

Cc1n(-c2ccccc2)c2ccccc2[n+]1[O-]
inactive: [17] 101 % of control | [18] 101 % of control | [19] 101 % of control

CC(C)(Br)C(=O)c1ccc(-c2ccccc2)cc1
inactive: [20] 101 % of control | [21] 101 % of control | [2] 89 % of control | [22] 98 % of control | [13] 100 % of control | [3] 87 % of control | [23] 95 % of control | [14] 94 % of control | dose: 400.0 mg/kg/injection, schedule: Q01DX009 (ip), vehicle: Klucel (hydroxypropylcellulose) (HPC) 92 % of control | [24] 92 % of control | [15] 91 % of control

Cl[Si](Cl)(Cl)CCc1ccccc1
inactive: [7] 104 % of control | [25] 101 % of control | [9] 90 % of control

O=S1(=O)N2CN3CN(C2)CN1C3
inactive: [26] 94 % of control | [2] 97 % of control | [27] 102 % of control | [3] 100 % of control | dose: 400.0 mg/kg/injection, schedule: Q01DX001 (ip), vehicle: Klucel (hydroxypropylcellulose) (HPC) 104 % of control

Cc1ccc(I)cc1NCN1C(=O)c2ccccc2C1=O
inactive: dose: 100.0 mg/kg/injection, schedule: Q04DX002 (ip), vehicle: saline with Tween-80 100 % of control | dose: 200.0 mg/kg/injection, schedule: Q04DX002 (ip), vehicle: saline with Tween-80 107 % of control | dose: 400.0 mg/kg/injection, schedule: Q04DX002 (ip), vehicle: saline with Tween-80 104 % of control

c1ccc(-c2cc(-c3cc(-c4ccccc4)on3)no2)cc1
inactive: [8] 98 % of control | [28] 98 % of control | [29] 101 % of control

NC(=S)/C(N)=N/Nc1ccc(Cl)cc1
inactive: dose: 12.5 mg/kg/injection, schedule: Q01DX009 (ip), vehicle: saline with Tween-80 92 % of control | [6] 108 % of control | dose: 25.0 mg/kg/injection, schedule: Q01DX009 (ip), vehicle: saline with Tween-80 92 % of control | [7] 120 % of control | [25] 103 % of control

CC1(C)Cc2nc3ccccc3nc2-c2ccccc21
inactive: [4] 95 % of control | [5] 90 % of control | dose: 400.0 mg/kg/injection, schedule: Q04DX003 (ip), vehicle: saline 100 % of control

Cc1cccc2c1sc1c(C)cc(C(=O)CCC(=O)O)cc12
inactive: [17] 94 % of control | [18] 89 % of control | [19] 97 % of control

O=N[O-].O=N[O-].O=N[O-].O=N[O-].O=N[O-].O=N[O-].[Ni]
inactive: dose: 25.0 mg/kg/injection, schedule: Q04DX002 (ip), vehicle: saline 106 % of control | dose: 50.0 mg/kg/injection, schedule: Q04DX002 (ip), vehicle: saline 113 % of control | [16] 106 % of control

C[N+](C)(C)C(=Nc1ccccc1)c1ccccc1
inactive: dose: 12.5 mg/kg/injection, schedule: Q01DX009 (ip), vehicle: Klucel (hydroxypropylcellulose) (HPC) 100 % of control | [10] 96 % of control | [11] 108 % of control | [1] 100 % of control and 105 % of control | [12] 94 % of control | [13] 100 % of control

N#Cc1cnn(CCO)c1N
inactive: dose: 100.0 mg/kg/injection, schedule: Q01DX001 (ip), vehicle: carboxymethylcellulose (CMC) 103 % of control | [22] 107 % of control | dose: 100.0 mg/kg/injection, schedule: Q04DX003 (ip), vehicle: water 115 % of control | dose: 200.0 mg/kg/injection, schedule: Q01DX001 (ip), vehicle: carboxymethylcellulose (CMC) 97 % of control | [23] 101 % of control | dose: 200.0 mg/kg/injection, schedule: Q04DX003 (ip), vehicle: water 110 % of control | dose: 400.0 mg/kg/injection, schedule: Q01DX001 (ip), vehicle: carboxymethylcellulose (CMC) 100 % of control | [24] 114 % of control | dose: 400.0 mg/kg/injection, schedule: Q04DX003 (ip), vehicle: water 104 % of control

Cn1cnc2c(SCc3ccccc3)ncnc21
inactive: dose: 75.0 mg/kg/injection, schedule: Q01DX009 (ip), vehicle: saline with Tween-80 97 % of control | dose: 100.0 mg/kg/injection, schedule: Q01DX009 (ip), vehicle: saline with Tween-80 104 % of control | dose: 200.0 mg/kg/injection, schedule: Q01DX009 (ip), vehicle: saline with Tween-80 117 % of control

CC(=O)Nc1snc(C)c1[N+](=O)[O-]
inactive: [17] 107 % of control | [18] 103 % of control | [19] 103 % of control

Cc1ccc(NC(=O)Nc2ccccc2C(N)=O)c([N+](=O)[O-])c1
inactive: [13] 90 % of control | [14] 87 % of control | [15] 90 % of control

N#Cc1ccc(Oc2ccc(C#N)cc2)cc1
inactive: [28] 100 % of control | [29] 97 % of control | dose: 400.0 mg/kg/injection, schedule: Q04DX003 (ip), vehicle: saline with Tween-80 101 % of control

O=C(O)CNC1CSSC1
inactive: [20] 106 % of control | [21] 106 % of control

CCCC1=Cc2cc3c(cc2C1N(C)C)OCO3 (stereo not given)
inactive: [26] 97 % of control | [27] 97 % of control
